Patent publication US6770661B2, “Aryl substituted pyridines and their use” (Euro-Celtique S.A., priority 2001, dated 2004)

Target: rBIIa/beta 1 sodium channels expressed in Xenopus oocytes (Rattus norvegicus, UniProt P04775)
Assay: Electrophysiological in vitro assay, two-electrode voltage clamp, sodium channel blockade
Assay type: cell-based
Conditions: apparent inhibition constant for the inactivated state, from single point inhibition data; holding potential −120 mV, 4 second depolarization; read-out: RBIIA/β1 Ki
Method: Electrophysiological Assay:
Electrophysiological Assay was used to measure potencies of compounds of the present invention rBIIa/beta 1 sodium channels expressed in Xenopus oocytes.
Preparation of cRNA encoding cloned rat brain type IIa (rBIIa) and beta 1 (β1): cDNA clones encoding the rat brain beta 1 subunit were cloned in house using standard methods, and mRNA were prepared by standard methods. mRNA encoding rBIIa was provided by Dr. A. Golden (UC Irvine). The mRNAs were diluted and stored at −80° C. in 1 μL aliquots until injection. […]
Electrophysiology: Membrane current responses were recorded in frog Ringer solution containing 115 mM NaCl, 2 mM KCl, 1.8 mM CaCl2, 5 mM HEPES, pH 7.4. […]
Voltage protocols for evoking sodium channel currents: The standard holding potential for whole oocyte clamp was −120 mV. […] Peak currents were measured as the maximum negative current after depolarizing voltage steps. […]
The purpose was to find compounds that are state dependent modifiers of neuronal sodium channels. […] Sodium currents were measured at this test pulse before and after the application of the tested compound. Data was acquired using pClamp 8.0 software and analyzed with clampfit software (Axon instruments). […]

Chain of rBIIa/beta 1 sodium channels expressed in Xenopus oocytes (P04775 whole entry): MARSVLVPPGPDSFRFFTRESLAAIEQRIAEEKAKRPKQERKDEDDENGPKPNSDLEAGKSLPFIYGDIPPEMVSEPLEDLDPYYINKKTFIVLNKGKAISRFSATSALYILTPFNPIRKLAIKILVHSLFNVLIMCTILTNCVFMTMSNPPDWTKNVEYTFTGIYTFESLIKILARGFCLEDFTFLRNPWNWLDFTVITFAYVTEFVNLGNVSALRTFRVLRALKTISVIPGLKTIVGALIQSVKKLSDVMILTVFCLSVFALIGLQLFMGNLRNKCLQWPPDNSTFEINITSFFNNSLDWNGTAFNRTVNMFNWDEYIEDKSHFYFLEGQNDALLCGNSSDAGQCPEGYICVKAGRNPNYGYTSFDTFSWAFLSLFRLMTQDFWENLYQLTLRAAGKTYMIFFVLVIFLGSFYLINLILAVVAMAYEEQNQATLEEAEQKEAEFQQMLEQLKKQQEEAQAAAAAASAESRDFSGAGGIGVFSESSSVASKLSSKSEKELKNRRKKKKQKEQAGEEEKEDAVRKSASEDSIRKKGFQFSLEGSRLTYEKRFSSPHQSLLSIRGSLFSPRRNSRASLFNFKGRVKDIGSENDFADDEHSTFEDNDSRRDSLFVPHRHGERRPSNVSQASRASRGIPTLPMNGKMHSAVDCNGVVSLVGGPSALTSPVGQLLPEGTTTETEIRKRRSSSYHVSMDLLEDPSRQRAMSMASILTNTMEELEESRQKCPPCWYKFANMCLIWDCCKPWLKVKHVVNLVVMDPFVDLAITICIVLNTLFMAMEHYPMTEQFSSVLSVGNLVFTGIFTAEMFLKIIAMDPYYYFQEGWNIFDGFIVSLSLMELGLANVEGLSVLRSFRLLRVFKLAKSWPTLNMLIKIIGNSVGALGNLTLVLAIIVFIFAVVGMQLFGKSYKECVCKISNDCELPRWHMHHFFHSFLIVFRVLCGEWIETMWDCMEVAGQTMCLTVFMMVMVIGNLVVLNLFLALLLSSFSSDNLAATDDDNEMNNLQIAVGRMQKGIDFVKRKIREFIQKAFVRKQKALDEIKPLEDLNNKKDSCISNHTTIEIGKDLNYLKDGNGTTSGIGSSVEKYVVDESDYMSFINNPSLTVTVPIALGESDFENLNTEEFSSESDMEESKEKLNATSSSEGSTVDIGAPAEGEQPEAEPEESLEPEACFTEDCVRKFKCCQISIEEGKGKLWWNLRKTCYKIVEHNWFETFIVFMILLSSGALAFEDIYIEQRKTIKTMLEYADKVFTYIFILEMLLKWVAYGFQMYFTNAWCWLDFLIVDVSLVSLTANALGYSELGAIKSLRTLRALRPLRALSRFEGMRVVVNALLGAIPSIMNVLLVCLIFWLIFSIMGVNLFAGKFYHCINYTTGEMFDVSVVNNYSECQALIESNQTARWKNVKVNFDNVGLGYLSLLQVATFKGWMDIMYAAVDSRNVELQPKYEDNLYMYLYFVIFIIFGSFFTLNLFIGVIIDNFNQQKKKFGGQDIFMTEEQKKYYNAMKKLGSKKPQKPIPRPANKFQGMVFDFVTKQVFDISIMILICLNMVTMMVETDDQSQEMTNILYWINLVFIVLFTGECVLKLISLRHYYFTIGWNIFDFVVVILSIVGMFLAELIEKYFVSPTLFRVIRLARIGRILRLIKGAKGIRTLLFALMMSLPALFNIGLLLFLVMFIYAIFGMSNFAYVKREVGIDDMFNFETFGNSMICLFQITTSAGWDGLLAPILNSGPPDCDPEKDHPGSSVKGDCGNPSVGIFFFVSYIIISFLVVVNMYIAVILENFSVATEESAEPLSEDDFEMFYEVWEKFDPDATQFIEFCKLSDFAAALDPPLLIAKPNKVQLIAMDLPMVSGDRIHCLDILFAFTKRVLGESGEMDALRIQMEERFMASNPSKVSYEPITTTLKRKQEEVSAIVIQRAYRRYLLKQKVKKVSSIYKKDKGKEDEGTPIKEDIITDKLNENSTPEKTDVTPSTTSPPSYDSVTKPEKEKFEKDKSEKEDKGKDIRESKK
Chain of rBIIa/beta 1 sodium channels expressed in Xenopus oocytes (Q00954 19-218 partner): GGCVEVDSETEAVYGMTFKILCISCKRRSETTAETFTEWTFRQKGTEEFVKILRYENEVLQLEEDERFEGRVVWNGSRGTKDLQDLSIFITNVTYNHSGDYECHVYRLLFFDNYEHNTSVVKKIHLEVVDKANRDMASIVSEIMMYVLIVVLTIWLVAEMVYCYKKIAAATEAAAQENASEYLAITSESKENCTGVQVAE

Ki [nM] | SMILES
290 | NC(=O)c1cc(N2CCOCC2)cc(-c2ccc(Oc3ccc(F)cc3)cc2)n1 [2-[4-(4-Fluorophenoxy)phenyl]-4-N-morpholinylpyridine-6-carboxamide]
180 | Cc1cc(OCCN2CCCCC2)cc(-c2ccc(Oc3ccc(F)cc3)cc2)n1 [2-[4-(4-Fluorophenoxy)phenyl]-6-methyl-4-[2-(N-piperidinyl)ethoxy]-pyridine]
